Results on three compounds are retold here after patent US20060183759A1, “Tissue transglutaminase inhibitors” (priority 2004, published 2006).

Like-named read-outs stand apart in the source and are kept apart here.

Experiment [1] has as its target T1, transglutaminase 2 (TGase 2) (Homo sapiens, UniProt P21980).
T1 sequence (P21980 1-687): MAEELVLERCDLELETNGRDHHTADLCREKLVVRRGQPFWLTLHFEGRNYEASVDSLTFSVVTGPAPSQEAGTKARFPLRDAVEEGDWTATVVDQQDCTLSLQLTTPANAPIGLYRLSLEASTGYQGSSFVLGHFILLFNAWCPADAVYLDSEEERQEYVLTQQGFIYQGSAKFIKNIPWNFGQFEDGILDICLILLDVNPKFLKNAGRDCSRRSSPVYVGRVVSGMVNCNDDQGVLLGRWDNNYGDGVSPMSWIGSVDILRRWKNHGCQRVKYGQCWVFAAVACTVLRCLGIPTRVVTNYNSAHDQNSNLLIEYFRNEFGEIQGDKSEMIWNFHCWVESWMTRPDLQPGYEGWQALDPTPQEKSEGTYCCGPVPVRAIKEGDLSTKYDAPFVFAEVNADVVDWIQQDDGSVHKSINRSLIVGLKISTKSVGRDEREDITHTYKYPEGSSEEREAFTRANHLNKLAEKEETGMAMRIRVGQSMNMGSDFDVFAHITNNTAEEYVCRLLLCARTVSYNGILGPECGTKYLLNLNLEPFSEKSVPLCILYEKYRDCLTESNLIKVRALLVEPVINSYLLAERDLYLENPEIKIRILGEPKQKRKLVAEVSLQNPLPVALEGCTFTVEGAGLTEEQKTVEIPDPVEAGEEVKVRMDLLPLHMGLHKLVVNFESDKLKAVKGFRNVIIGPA
Nature of the experiment: TGase 2 transpeptidase fluorescence assay: incorporation of KXD into N,N-dimethylated-casein (Std and FPC formats). It is filed as biochemical. The procedure:
Transpeptidase activity was monitored as the increase in fluorescence intensity (FI) that accompanies incorporation of the dansylated Lys derivative, α-N-Boc-Lys-CH2-CH2-dansyl (KXD), into the protein substrate, N,N-dimethylated-casein (NMC).
Therefore, a method was used in which full progress curves (FPC) were recorded for the TGase-catalyzed reaction of KXD with NMC in the presence of inhibitor (Table 1-4). Reactions were initiated by enzyme addition to a solution of substrate and inhibitor. […] From such progress curves, IC50 values were calculated using the following equation: IC50=[I]/{(vc/vss)−1}. Progress curves recorded at several inhibitor concentrations were used to determine FPC IC50 values (Table 1-4).

For experiment [2], the target named is T1, transglutaminase 2 (TGase 2). The experiment is described as above. It is filed as biochemical. As to conditions: standard format (Std): reactions terminated after 60 min, FI recorded, four-parameter fit.
Where [3] appears, read: full progress curves (FPC), IC50=[I]/{(vc/vss)−1}, from steady-state velocity, read-out: IC50 (μM, FPC).

Consider `COc1cccc(-c2csc3nc(SCC(=O)NN)n(-c4cccc(F)c4)c(=O)c23)c1` [986-32, [3-(3-Fluorophenyl)-5-(3-methoxyphenyl)-4-oxo-3,4-dihydrothieno[2,3-d]pyrimidin-2-ylsulfanyl]acetic acid hydrazide], for which the IC50 in experiment [1] (setting [3]) is 0.14 µM; in experiment [1] (summary of FPC values, read-out: FPC IC50 values) it was < 0.16 µM; in experiment [2], 0.21 µM.

Take `CCN(CC)CCCOc1ccccc1-c1csc2nc(SCC(=O)NN)n(-c3cccc(F)c3)c(=O)c12` [986-35, [5-[2-(3-Diethylaminopropoxy)phenyl]-3-(3-fluorophenyl)-4-oxo-3,4-dihydrothieno[2,3-d]pyrimidin-2-ylsulfanyl]acetic acid hydrazide]: the “TGase 2 inhibitory activity, SAR comment in words (relative to parent compound)” value in experiment [1] (qualitative comparison) is given as “decreased inhibitory activity”. The compound further had an IC50 in experiment [2] of 4.8 µM.

Turning to `NNC(=O)CSc1nc2sc3c(c2c(=O)n1-c1cccc(F)c1)C(c1ccccc1)CCC3` (stereo not shown) [986-44, [3-(3-Fluorophenyl)-4-oxo-5-phenyl-3,4,5,6,7,8-hexahydrobenzo[4,5]thieno[2,3-d]pyrimidin-2-ylsulfanyl]acetic acid hydrazide], the IC50 was determined as 0.17 µM in experiment [1] (setting [3]) and 0.93 µM in experiment [2].
